# In patent US20260285816A1, “Piperazinyl-Modified Quinazolinyl-Aryl Urea Derivative, And Preparation Method And Use Thereof” (Guangxi Normal University, priority 2025, published 2026):
# Where a name gives a salt, the structure may show the parent alone. Read-outs that look alike come from different tables or passages of the source.
# Legend:
# [1] = system: human osteosarcoma 143B; assay: 143B tumor-bearing nude mouse model; assay type: in vivo, nude mice; conditions: 40 mg/kg oral gavage, every 2 d, 42 d
# Description: Experimental method: bladder cancer J82 cells in logarithmic growth phase were trypsinized, collected, and then centrifuged, and resuspended in serum-free DMEM medium after discarding an original medium. Cell density was adjusted, and 0.2 mL cell suspension was subcutaneously inoculated into 5-week-old BALB/c-nu mice (sex-balanced, 18-20 g) under a laminar flow clean bench. Post-inoculation, bleeding at injection sites was monitored. When tumors reached 50-80 mm^3, nude mice with good tumor growth status were randomized into 5 groups (n=6/group) for intraperitoneal administration. Tumor volume and body weight were recorded on Day 0. […] Dosing occurred every 2 d for 42 d. After administering the drug, mice were monitored for diarrhea, anorexia, lethargy, and allergic reactions (e.g., pruritus). The body weight of nude mice was measured every 2 days, and the long and short diameters of the tumors in nude mice were measured by using a vernier caliper, then the recording was finished.
# Construction of the human osteosarcoma 143B tumor-bearing nude mouse model followed similar procedures, with identical dosing frequency but administration route changed to oral gavage. Specifically: When tumors reached 60-90 mm^3, mice were randomized into 4 groups (n=6). […]
# [2] = system: 143B cells; assay: CCK-8 anti-proliferative assay, 143B; assay type: cell-based, human; conditions: Homo sapiens, 143B, co-incubated 48 h, read-out: Anti-proliferative activity (IC50 ± standard deviation) 143B
# Summary of the method: (§1)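 Growth inhibition was measured by CCK-8 in human cells seeded at 5,000 per well and treated at 70% confluency. Compound exposure spanned 1, 2, 4, 6, 8, 12, 16, 24 and 30 μM for designated durations at 37° C. Percent inhibition against vehicle control at OD 450 nm yielded median inhibitory concentrations.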
# [3] = system: MG-63 cells; assay: CCK-8 anti-proliferative assay, MG-63; assay type: cell-based, human; conditions: Homo sapiens, MG-63, co-incubated 48 h, read-out: Anti-proliferative activity (IC50 ± standard deviation) MG-63
# Summary of the method: as §1
# [4] = system: T24 cells; assay: CCK-8 anti-proliferative assay, T24; assay type: cell-based, human; conditions: Homo sapiens, T-24; Table 10; co-incubated 48 h; read-out: Anti-proliferative activity (IC50 ± standard deviation) T24
# Summary of the method: as §1
# [5] = system: MCF-7 cells; assay: CCK-8 anti-proliferative assay, MCF-7; assay type: cell-based, human; conditions: Homo sapiens, MCF7; Table 12; co-incubated 48 h; read-out: Anti-proliferative activity (IC50 ± standard deviation) MCF-7
# Summary of the method: (§2)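 Anti-proliferative effect is measured by CCK-8 after compound exposure at nine final concentrations between 1 and 30 μM. Treatment starts once seeded cells (5,000/well) reach 70% confluency at 37° C., 5% CO2.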
# [6] = system: UM-UC-3 cells; assay: CCK-8 anti-proliferative assay, UM-UC-3; assay type: cell-based, human; conditions: Homo sapiens, UMUC3, co-incubated 48 h, read-out: Anti-proliferative activity (IC50 ± standard deviation) UM-UC-3
# Summary of the method: as §2
# [7] = system: PANC-1 cells; assay: CCK-8 anti-proliferative assay, PANC-1; assay type: cell-based, human; conditions: for IC50: Homo sapiens, PANC-1, co-incubated 48 h, read-out: Anti-proliferative activity (IC50 ± standard deviation) PANC-1
# Summary of the method: as §1
# [8] = system: immortalized ureteral epithelial cells (SV-HUC-1); assay: CCK-8 anti-proliferative assay, normal cells SV-HUC-1; assay type: cell-based, human; conditions: Homo sapiens, SV-HUC1, normal cells, co-incubated 48 h, read-out: Anti-proliferative activity (IC50 ± standard deviation) SV-HUC-1
# Summary of the method: as §2
# [9] = system: HeLa cells; assay: CCK-8 anti-proliferative assay, HeLa; assay type: cell-based, human
# Summary of the method: as §2
# [10] = system: Hep G2 cells; assay: CCK-8 anti-proliferative assay, Hep G2; assay type: cell-based, human; conditions: Homo sapiens, HepG2; Table 12; co-incubated 48 h; read-out: Anti-proliferative activity (IC50 ± standard deviation) Hep G2
# Summary of the method: as §1
# [11] = system: UM-UC-3 cells; assay: Cell cycle analysis (PI staining, flow cytometry), UM-UC-3; assay type: cell-based, human
# Description: Tumor cells (T24, UM-UC-3, 143B, BxPC-3) in logarithmic growth phase were inoculated into 70 mm culture dishes. After 70% confluency was reached, medium was replaced and treated with: compound 8-1j, ferroptosis inducer Erastin, or cell cycle blocker paclitaxel (PTX) for a specified duration. Post-incubation, cells were trypsinized, collected, centrifuged, and washed 2 times with pre-cooled phosphate-buffered saline (PBS). Pre-cooled 75% ethanol was added dropwise during vortexing for fixation at −20° C. overnight. After centrifugation (10 min), supernatant was discarded. Cells were rewashed with PBS and centrifuged. Following kit instructions (Beyotime, C1052, China), 0.5 mL staining buffer, 25 μL PI (propidium iodide) stain (20×), and 10 μL RNase A (50×) were mixed per sample. Cells were resuspended in PI staining solution and incubated at 37° C. in dark for 30 min (gentle shaking every 10 min). Samples were filtered through 200-mesh filters, transferred into a flow tube, and analyzed via BD FACSVerse flow cytometer. All experiments were conducted in 3 repeats. Compounds 8-2h and 8-2j were evaluated identically.
# [12] = system: embryonic lung fibroblasts (WI-38); assay: CCK-8 anti-proliferative assay, normal cells WI-38; assay type: cell-based, human; conditions: Homo sapiens, WI-38, Table 13, co-incubated 48 h, read-out: Anti-proliferative activity (IC50 ± standard deviation) WI-38
# Summary of the method: as §1
# [13] = system: BxPC-3 cells; assay: CCK-8 anti-proliferative assay, BxPC-3; assay type: cell-based, human; conditions: for IC50: Homo sapiens, BXPC-3, co-incubated 48 h, read-out: Anti-proliferative activity (IC50 ± standard deviation) BxPC-3
# Summary of the method: as §1
# [14] = system: SK-OV-3 cells; assay: CCK-8 anti-proliferative assay, SK-OV-3; assay type: cell-based, human; conditions: Homo sapiens, SK-OV-3, co-incubated 48 h, read-out: Anti-proliferative activity (IC50 ± standard deviation) SK-OV-3
# Summary of the method: as §2
# [15] = system: 5637 cells; assay: CCK-8 anti-proliferative assay, 5637; assay type: cell-based, human; conditions: Homo sapiens
# Summary of the method: as §2
# [16] = system: A549 cells; assay: CCK-8 anti-proliferative assay, A549; assay type: cell-based, human
# Summary of the method: as §2
# [17] = system: J82 cells; assay: CCK-8 anti-proliferative assay, J82; assay type: cell-based, human; conditions: Homo sapiens, J82
# Summary of the method: as §2
# [18] = background; cited from earlier work
# [19] = system: human pancreatic cancer BxPC-3; assay: BxPC-3 tumor-bearing nude mouse model; assay type: in vivo, nude mice
# [20] = background; cited from earlier work; remark: listed apart in the source
structure (smiles),measurement,setting,value
"N#CC1(c2ccc(NC(=O)c3cccnc3NCc3ccncc3)cc2)CCCC1 [Apat, apatinib mesylate, reference compound]",Tumor inhibition,[1],weak tumor inhibition activity
same,IC50,[2]; Table 7,28.4 ± 1.29 µM
same,IC50,[3]; Table 7,> 30 µM
"COc1cc2ncnc(NCc3cccc(NC(=O)Nc4ccc(C(C)(C)C)cc4)c3)c2cc1OCCCCCCN1CCC(CN2CCN(c3ccccn3)CC2)CC1 [Compound 8-2j, N-(3-(((7-methoxy-6-((6-(4-((4-(pyridin-2-yl)piperazin-1-yl)methyl)piperidin-1-yl)hexyl)oxy)quinazolin-4-yl)amino)methyl)phenyl)-N′-(4-tert-butylphenyl)urea]",IC50,[4],3.32 ± 0.15 µM
same,IC50,[5],5.73 ± 0.59 µM
same,IC50,[6]; Table 10,4.66 ± 0.29 µM
same,"Sensitivity of PANC-1, in words",[7],heightened sensitivity
same,IC50,[7]; Table 11,5.46 ± 0.31 µM
same,IC50,[8]; Table 13,8.91 ± 0.72 µM
same,"Sensitivity of HeLa, in words",[9],sensitive
same,IC50,"[9]; Homo sapiens, HeLa, Table 12, co-incubated 48 h, read-out: Anti-proliferative activity (IC50 ± standard deviation) HeLa",3.81 ± 0.25 µM
same,IC50,[10],3.81 ± 0.24 µM
same,Effect of co-administration with PTX on cell cycle,"[11]; UM-UC-3, with PTX",Synergistic effects
same,Cell cycle arrest phase,[11]; UM-UC-3 cells (FIG. 45),arrest cell cycle at G2/M phase
same,IC50,[12],8.79 ± 0.42 µM
same,"Sensitivity of BxPC-3 / anti-proliferative activity against BxPC-3, in words",[13],heightened sensitivity
same,IC50,[13]; Table 11,6.15 ± 0.47 µM
same,IC50,[14]; Table 12,4.61 ± 0.38 µM
same,IC50,"[15]; Table 10, co-incubated 48 h, read-out: Anti-proliferative activity (IC50 ± standard deviation) 5637",2.97 ± 0.23 µM
same,IC50,[15]; read-out: IC50 values against 5637 cells,2.97 ± 0.23 µM
same,"Activity against A549 versus the 8-1 to 8-23 series, in words",[16],significantly enhanced activity against A549
same,IC50,"[16]; Homo sapiens, A549, Table 13, co-incubated 48 h, read-out: Anti-proliferative activity (IC50 ± standard deviation) A549",3.09 ± 0.24 µM
same,IC50,[2]; Table 11,5.59 ± 0.49 µM
same,IC50,[3]; Table 11,4.64 ± 0.32 µM
same,IC50,"[17]; Table 10, co-incubated 48 h, read-out: Anti-proliferative activity (IC50 ± standard deviation) J82",3.42 ± 0.25 µM
same,IC50,[17]; read-out: IC50 values against J82 cells,3.42 ± 0.25 µM
"COc1cc(OC)cc(N(CCNC(C)C)c2ccc3ncc(-c4cnn(C)c4)nc3c2)c1 [Erda, erdafitinib]",Water solubility,[18],poor water solubility
"Nc1ccn([C@@H]2O[C@H](CO)[C@@H](O)C2(F)F)c(=O)n1 [Gem, gemcitabine, reference compound]",Mice manifesting anorexia and emaciation after 4 doses,[19]; 24 mg/kg oral gavage,50%
same,Nude mice that died within 16 d,"[19]; 24 mg/kg oral gavage, n=6",3 of 6
same,Toxicity observations,"[19]; oral gavage, gemcitabine 24 mg/kg, 8-2h 12, 24, 36 mg/kg",significant gastrointestinal reactions
"CNC(=O)c1cc(Oc2ccc(NC(=O)Nc3ccc(Cl)c(C(F)(F)F)c3)cc2)ccn1 [Sora, sorafenib, reference compound]",IC50,[6]; Table 6,14.3 ± 1.51 µM
same,IC50,[7]; Table 7,8.13 ± 0.56 µM
same,IC50,[8]; Table 9,10.8 ± 0.54 µM
same,"Sensitivity of BxPC-3 / anti-proliferative activity against BxPC-3, in words",[13],weak anti-proliferative activity
same,IC50,[13]; Table 7,13.4 ± 1.27 µM
same,IC50,[14]; Table 9,13.8 ± 0.78 µM
same,Water solubility,[18],poor aqueous solubility
same,Elimination/metabolism,[20],rapid elimination/metabolism
same,Oral bioavailability,[20],low oral bioavailability
same,IC50,[2]; Table 7,22.7 ± 1.59 µM
same,IC50,[3]; Table 7,27.2 ± 1.89 µM
